Columns and labels:
[1] = molecular target: T1, human MAO B (hMAO B) (Homo sapiens, UniProt P27338); experiment: biochemical
T1 construct: purchased Sigma-Aldrich Europe (Milan, Italy); host or cells: baculovirus infected insect cells (microsomes)
T1 sequence (P27338 1-520): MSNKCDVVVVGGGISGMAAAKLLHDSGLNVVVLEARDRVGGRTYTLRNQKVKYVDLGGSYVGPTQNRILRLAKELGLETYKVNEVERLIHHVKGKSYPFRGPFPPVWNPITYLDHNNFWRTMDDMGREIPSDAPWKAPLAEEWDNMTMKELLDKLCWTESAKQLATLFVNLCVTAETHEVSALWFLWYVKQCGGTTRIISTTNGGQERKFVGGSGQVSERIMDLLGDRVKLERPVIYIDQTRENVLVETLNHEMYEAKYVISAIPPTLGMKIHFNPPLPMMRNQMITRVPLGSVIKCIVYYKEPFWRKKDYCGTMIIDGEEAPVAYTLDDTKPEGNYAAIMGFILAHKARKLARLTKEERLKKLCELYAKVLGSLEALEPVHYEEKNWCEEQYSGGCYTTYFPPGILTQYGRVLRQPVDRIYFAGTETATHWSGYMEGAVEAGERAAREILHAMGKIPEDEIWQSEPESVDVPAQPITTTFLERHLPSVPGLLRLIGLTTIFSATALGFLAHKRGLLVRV
From the text: Routine kynuramine fluorescence [29] and Ellman’s spectrophotometric [30, 31] assays were used for in vitro inhibition of human MAO B (hMAO B) and acetylcholinesterase (hAChE), respectively. Selectivity over the corresponding isoforms hMAO A and butyrylcholinesterase (hBChE) was also verified.
An already published protocol using human recombinant monoamine oxidases A (250 U/mg) and B (59 U/mg; microsomes from baculovirus infected insect cells) [29] was used by applying a 96-well plate technique (instrument Infinite M1000 Pro, Tecan, Cernusco s.N., Italy). Briefly, compounds at a concentration ranging from 30 to 0.01 μM were preincubated 20 min at 37 °C with substrate kynuramine, in phosphate buffer 8.0 made 0.39 osmolar with KCl. After addition of enzyme and further 30 min of incubation, NaOH was added and the fluorescence read at 310/400 excitation/emission wavelength. Experiments were performed in duplicates in black, flat-bottomed polystyrene 96-well microtiter plates (Greiner Bio-One GmbH, Frickenhausen, Germany). […] Inhibition values and kinetics were calculated by means of Prism (GraphPad Prism version 5.00 for Windows, GraphPad Software, San Diego, CA, USA).

[2] = molecular target: T2, BChE from human serum (hBChE) (Homo sapiens, UniProt P06276); experiment: hBChE inhibition, Ellman's spectrophotometric assay; format: biochemical; conditions: mean ± SEM of three independent experiments
T2 construct: BChE from human serum (50 U/mg); purchased Sigma-Aldrich Europe (Milan, Italy); host or cells: human serum
T2 sequence (P06276 29-602): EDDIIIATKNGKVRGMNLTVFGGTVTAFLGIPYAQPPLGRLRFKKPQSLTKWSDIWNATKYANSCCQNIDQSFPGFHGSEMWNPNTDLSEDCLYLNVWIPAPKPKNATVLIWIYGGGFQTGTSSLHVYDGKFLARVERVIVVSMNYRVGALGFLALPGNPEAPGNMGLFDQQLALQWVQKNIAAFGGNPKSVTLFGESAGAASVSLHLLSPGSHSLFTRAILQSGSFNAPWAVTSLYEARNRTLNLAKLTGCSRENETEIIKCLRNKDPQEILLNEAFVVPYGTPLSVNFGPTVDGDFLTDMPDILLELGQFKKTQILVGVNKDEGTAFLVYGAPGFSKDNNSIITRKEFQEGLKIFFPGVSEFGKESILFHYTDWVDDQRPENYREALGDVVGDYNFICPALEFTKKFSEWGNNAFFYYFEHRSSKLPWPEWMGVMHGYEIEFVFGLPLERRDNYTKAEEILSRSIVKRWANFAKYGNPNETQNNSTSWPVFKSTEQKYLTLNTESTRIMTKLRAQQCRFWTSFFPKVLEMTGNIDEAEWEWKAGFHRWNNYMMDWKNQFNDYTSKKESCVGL
Experimental: An already published method was used to apply the Ellman’s spectrophotometric assay to the 96-well plate technique. […] Experiments were performed in duplicate in transparent, flat-bottomed polystyrene 96-well microtiter plates, and readings made with Tecan Infinite M1000 Pro instrument.

[3] = molecular target: T3, carnitine/acylcarnitine carrier (CAC) in intact rat liver mitochondria (Rattus norvegicus, UniProt P97521); experiment: [3H]-carnitine uptake (CAC transport) in intact mitochondria; format: biochemical; conditions: 50 μM, after 120 min, 0.05 mM [3H]-carnitine
T3 construct: The measurement of CAC activity in isolated entire mitochondria has been performed as previously described; from tissue; host or cells: rat liver mitochondria (intact organelles)
T3 sequence (P97521 1-301): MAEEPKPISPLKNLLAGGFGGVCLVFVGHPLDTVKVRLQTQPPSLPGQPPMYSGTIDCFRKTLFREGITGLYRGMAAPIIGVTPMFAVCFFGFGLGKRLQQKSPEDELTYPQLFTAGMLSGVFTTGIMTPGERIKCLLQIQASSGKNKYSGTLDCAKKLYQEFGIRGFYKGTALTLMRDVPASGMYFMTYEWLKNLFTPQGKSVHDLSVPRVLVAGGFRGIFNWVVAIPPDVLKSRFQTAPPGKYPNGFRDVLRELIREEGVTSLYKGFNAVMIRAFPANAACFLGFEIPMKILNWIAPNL
Experimental: The purification of crude rat mitochondria and the measurement of CAC transport activity are described in Materials and Methods. The uptake of carnitine was started by adding 0.05 mM [^3H]-carnitine in the presence or absence of 50 μM DAN (dissolved in 1:1 DMSO/H2O). The transport activity was inhibited at various times by adding cold 1 mM N-ethylmaleimide (NEM) in a buffer containing 150 mM sucrose, 50 mM TRIS-HCl, 50 mM KCl. […] Addition of DAN to intact mitochondria induced an increase of transport function up to 41% after 120 min.
In order to isolate crude mitochondria from rat liver, a standard protocol was performed, involving cell destruction by mechanical stress, isolation by differential centrifugation in order to eliminate various subcellular contaminations, and purification by centrifugation on colloidal silica Percoll 30% gradient. The average purity of the mitochondrial preparation was monitored by measuring the specific activity of alkaline phosphatase (EC 3.1.3.1). The specific activity of alkaline phosphatase, in the mitochondria preparations was measured at 37 °C as substrate consumed per min per mg protein [55]. […] The purified mitochondria (5 mg/100 μL) were incubated for 2 h with 20 mM carnitine, washed three times with a buffer containing 150 mM sucrose, 50 mM TRIS-HCl, 50 mM KCl, and the transport activity was measured. […]

[4] = molecular target: T4, native CAC (mitochondrial rat liver extract) (Rattus norvegicus, UniProt P97521); experiment: Transport activity of native CAC from mitochondrial extract reconstituted into liposomes; format: biochemical; conditions: after 30 min of incubation; concentration range 1–200 μM; read-out: EC50 of activation of native CAC
T4 construct: Mitochondrial rat liver extract (0.3 mg proteins in 3% Triton X-100) containing native CAC was reconstituted into liposomes; from tissue; host or cells: rat liver mitochondrial Triton X-100 extract
T4 sequence (P97521 1-301): T3 sequence (P97521 1-301)
Experimental: To detect the effect of DAN on native CAC, mitochondrial extract was reconstituted into liposomes and transport activity was measured adding various concentrations of compound. In Figure 7A, the dose–response curve is shown. […] Thus, the effect of different concentrations of DAN was tested also on the purified recombinant wild-type (WT) CAC carrier reconstituted into liposomes, measuring the antiport rate of carnitine.
Mitochondrial rat liver extract (0.3 mg proteins in 3% Triton X-100) containing native CAC was reconstituted into liposomes by removing the detergent from the mixed micelles through a hydrophobic ion-exchange column containing the resin Amberlite XAD-4, as described previously. […]
Before starting the transport activity, proteoliposomes were passed through a Sephadex G-75 column (0.7 cm diameter; 15 cm height; Pharmacia, Milan, Italy) to remove the external substrate. […] Finally, the external substrate was removed by chromatography on Sephadex G-75 columns (0.7 cm diameter; 10 cm height) and intraliposomal radioactivity was measured by a liquid scintillation counter (Perkin Elmer, Milan, Italy).
EC50 values were calculated using AATBioquest EC50 calculator [60]. […]

For `O=C1CN(/N=C/c2ccc(-c3ccc([N+](=O)[O-])cc3)o2)C(O)=N1` [Dantrolene], the IC50 [1] was 2.69 ± 0.44 µM, the “hMAO B inhibition mechanism” value ([1]; Michaelis–Menten / Lineweaver–Burk, substrate kynuramine) was “comp” and the Ki ([1]; substrate kynuramine, mean ± SEM) was 0.96 ± 0.09 µM. The “hBChE IC50” value [2] was “No inhibition”, the “increase of CAC transport function in intact mitochondria” value [3] was 41% and the EC50 [4] was 18 ± 5 µM.

Reference: paper PMC6930524, “A Prospective Repurposing of Dantrolene as a Multitarget Agent for Alzheimer’s Disease” (Molecules, 2019)
